Reference: the supplement of paper PMC10307832

Assays:
Assay in all cases: relative viability (nuclei count vs DMSO), 5 days (fraction); higher = more cells survive
[1] = compound: CC(C)CCN1c2nc(Nc3cc(F)c(O)c(F)c3)ncc2N(C)C(=O)C1C [BI-D1870] + CS(=O)(=O)N1CCN(Cc2cc3nc(-c4cccc5[nH]ncc45)nc(N4CCOCC4)c3s2)CC1 [Pictilisib] (partner 1 µM)
In short: (§1)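 Relative viability was taken as the ratio of nuclei in treated wells to nuclei in vehicle wells. Lung cancer cell lines in 1536-well plates received compounds by pin tool one day after seeding, either one drug alone or a fixed anchor-drug dose plus five library-drug doses (not always all listed) in √10 steps. Nuclei were counted on 4× images after 5 days of treatment, and values are medians of duplicate plates.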

[2] = compound: O=c1ncccn1[C@@H]1O[C@H](CO)[C@@H](O)[C@H]1O [Zebularine] + COc1cc2c(Oc3ccc(NC(=O)C4(C(=O)Nc5ccc(F)cc5)CC4)cc3F)ccnc2cc1OCCCN1CCOCC1 [Foretinib] (partner 0.25 µM)
In short: as §1

[3] = compound: O=c1ncccn1[C@@H]1O[C@H](CO)[C@@H](O)[C@H]1O [Zebularine] + N=C(N)NC(=N)NCCc1ccccc1 [Phenformin] (partner 250 µM)
In short: as §1

[4] = compound: O=c1ncccn1[C@@H]1O[C@H](CO)[C@@H](O)[C@H]1O [Zebularine] + Nc1nc2[nH]cc(CCc3ccc(C(=O)N[C@@H](CCC(=O)O)C(=O)O)cc3)c2c(=O)[nH]1 [Pemetrexed] (partner 0.2 µM)
In short: as §1

UMC-11
relative viability ([1]; first compound 0.04 µM): 0.908
relative viability ([1]; first compound 0.1265 µM): 0.608
relative viability ([1]; first compound 0.4 µM): 0.759
relative viability ([1]; first compound 1.265 µM): 0.733
relative viability ([1]; first compound 4 µM): 0.316
relative viability ([2]; first compound 1 µM): 1
relative viability ([2]; first compound 3.162 µM): 1.06
relative viability ([2]; first compound 10 µM): 0.626
relative viability ([2]; first compound 31.62 µM): 0.635
relative viability ([2]; first compound 100 µM): 0.357
relative viability ([3]; first compound 1 µM): 0.282
relative viability ([3]; first compound 3.162 µM): 0.344
relative viability ([3]; first compound 10 µM): 0.258
relative viability ([3]; first compound 31.62 µM): 0.327
relative viability ([3]; first compound 100 µM): 0.292
relative viability ([4]; first compound 1 µM): 0.809
relative viability ([4]; first compound 3.162 µM): 0.724
relative viability ([4]; first compound 10 µM): 0.388
relative viability ([4]; first compound 31.62 µM): 0.649
relative viability ([4]; first compound 100 µM): 0.417
